Tests used:
Assay type in all cases: functional
SR = test: Cytotoxicity against human SR cells assessed as cell growth at 0.01 uM incubated for 48 hrs by sulforhodamine B assay relative to control; details: read-out: Activity
NCI-H226 = test: Cytotoxicity against human NCI-H226 cells assessed as cell growth at 0.01 uM incubated for 48 hrs by sulforhodamine B assay relative to control; details: NCI-H226, 48 h, read-out: Activity
SK-MEL-5 [1] = test: Cytotoxicity against human SK-MEL-5 cells assessed as cell growth at 0.01 uM incubated for 48 hrs by sulforhodamine B assay relative to control; details: SK-MEL-5, 48 h, read-out: Activity
OVCAR-3 = test: Cytotoxicity against human OVCAR3 cells assessed as cell growth at 0.01 uM incubated for 48 hrs by sulforhodamine B assay relative to control; details: OVCAR-3, 48 h, read-out: Activity
UO-31 = test: Cytotoxicity against human UO31 cells assessed as cell growth at 0.01 uM incubated for 48 hrs by sulforhodamine B assay relative to control; details: UO-31, 48 h, read-out: Activity
PC-3 = test: Cytotoxicity against human PC3 cells assessed as cell growth at 0.01 uM incubated for 48 hrs by sulforhodamine B assay relative to control; details: PC-3, 48 h, read-out: Activity
A549 [2] = test: Cytotoxicity against human A549/ATCC cells assessed as cell growth at 0.1 uM incubated for 48 hrs by sulforhodamine B assay relative to control; details: A549, 48 h, read-out: Activity
HOP-62 = test: Cytotoxicity against human HOP62 cells assessed as cell growth at 0.1 uM incubated for 48 hrs by sulforhodamine B assay relative to control; details: HOP-62, 48 h, read-out: Activity
HOP-92 = test: Cytotoxicity against human HOP92 cells assessed as cell growth at 0.1 uM incubated for 48 hrs by sulforhodamine B assay relative to control; details: HOP-92, 48 h, read-out: Activity
UACC-62 = test: Cytotoxicity against human UACC62 cells assessed as cell growth at 0.1 uM incubated for 48 hrs by sulforhodamine B assay relative to control; details: UACC-62, 48 h, read-out: Activity
A498 = test: Cytotoxicity against human A498 cells assessed as cell growth at 0.1 uM incubated for 48 hrs by sulforhodamine B assay relative to control; details: A498, 48 h, read-out: Activity
MOLT-4 = test: Cytotoxicity against human MOLT4 cells assessed as cell growth at 1 uM incubated for 48 hrs by sulforhodamine B assay relative to control; details: MOLT-4, 48 h, read-out: Activity
SK-MEL-5 [3] = test: Cytotoxicity against human SK-MEL-5 cells assessed as cell growth at 1 uM incubated for 48 hrs by sulforhodamine B assay relative to control; details: SK-MEL-5, 48 h, read-out: Activity
NCI/ADR-RES = test: Cytotoxicity against human NCI/ADR-RES cells assessed as cell growth at 1 uM incubated for 48 hrs by sulforhodamine B assay relative to control; details: read-out: Activity
HL-60(TB) = test: Cytotoxicity against human HL-60(TB) cells assessed as cell growth at 10 uM incubated for 48 hrs by sulforhodamine B assay relative to control; details: HL-60, 48 h, read-out: Activity
A549 [4] = test: Cytotoxicity against human A549/ATCC cells assessed as cell growth at 10 uM incubated for 48 hrs by sulforhodamine B assay relative to control; details: A549, 48 h, read-out: Activity
NCI-H23 = test: Cytotoxicity against human NCI-H23 cells assessed as cell growth at 10 uM incubated for 48 hrs by sulforhodamine B assay relative to control; details: NCI-H23, 48 h, read-out: Activity
NCI-H322M = test: Cytotoxicity against human NCI-H322M cells assessed as cell growth at 10 uM incubated for 48 hrs by sulforhodamine B assay relative to control; details: read-out: Activity
NCI-H460 = test: Cytotoxicity against human NCI-H460 cells assessed as cell growth at 10 uM incubated for 48 hrs by sulforhodamine B assay relative to control; details: NCI-H460, 48 h, read-out: Activity
HCT-15 = test: Cytotoxicity against human HCT15 cells assessed as cell growth at 10 uM incubated for 48 hrs by sulforhodamine B assay relative to control; details: HCT-15, 48 h, read-out: Activity
KM12 = test: Cytotoxicity against human KM12 cells assessed as cell growth at 10 uM incubated for 48 hrs by sulforhodamine B assay relative to control; details: KM12, 48 h, read-out: Activity
LOX IMVI = test: Cytotoxicity against human LOXIMVI cells assessed as cell growth at 10 uM incubated for 48 hrs by sulforhodamine B assay relative to control; details: read-out: Activity
MDA-MB-435 = test: Cytotoxicity against human MDA-MB-435 cells assessed as cell growth at 10 uM incubated for 48 hrs by sulforhodamine B assay relative to control; details: MDA-MB-435, 48 h, read-out: Activity
IGROV-1 [5] = test: Cytotoxicity against human IGROV1 cells assessed as cell growth at 10 uM incubated for 48 hrs by sulforhodamine B assay relative to control; details: IGROV-1, 48 h, read-out: Activity
NCI-H522 = test: Cytotoxicity against human NCI-H522 cells assessed as cell growth at 100 uM incubated for 48 hrs by sulforhodamine B assay relative to control; details: NCI-H522, 48 h, read-out: Activity
SF-268 = test: Cytotoxicity against human SF268 cells assessed as cell growth at 100 uM incubated for 48 hrs by sulforhodamine B assay relative to control; details: SF-268, 48 h, read-out: Activity
U-251 = test: Cytotoxicity against human U251 cells assessed as cell growth at 100 uM incubated for 48 hrs by sulforhodamine B assay relative to control; details: U-251, 48 h, read-out: Activity
IGROV-1 [6] = test: Cytotoxicity against human IGROV1 cells assessed as cell growth at 100 uM incubated for 48 hrs by sulforhodamine B assay relative to control; details: IGROV-1, 48 h, read-out: Activity
SK-MEL-5 [7] = test: Cytotoxicity against human SK-MEL-5 cells incubated for 48 hrs by sulforhodamine B assay; details: SK-MEL-5, 48 h
IGROV-1 [8] = test: Cytotoxicity against human IGROV1 cells incubated for 48 hrs by sulforhodamine B assay; details: IGROV-1, 48 h
786-0 = test: Cytotoxicity against human 786-0 cells incubated for 48 hrs by sulforhodamine B assay; details: 786-0, 48 h
SN12C = test: Cytotoxicity against human SN12C cells incubated for 48 hrs by sulforhodamine B assay

## COc1ccc(-c2nocc2-c2cc(OC)c(OC)c(OC)c2)cc1
SR
  growth at 0.01 µM: 99%
NCI-H226
  growth at 0.01 µM: 100%
SK-MEL-5 [1]
  growth at 0.01 µM: 100%
OVCAR-3
  growth at 0.01 µM: 100%
UO-31
  growth at 0.01 µM: 90%
PC-3
  growth at 0.01 µM: 99%
A549 [2]
  growth at 0.1 µM: 47%
HOP-62
  growth at 0.1 µM: 58%
HOP-92
  growth at 0.1 µM: 72%
UACC-62
  growth at 0.1 µM: 36%
A498
  growth at 0.1 µM: 29%
MOLT-4
  growth at 1 µM: 44%
SK-MEL-5 [3]
  growth at 1 µM: 29%
NCI/ADR-RES
  growth at 1 µM: 9%
HL-60(TB)
  growth at 10 µM: -8%
A549 [4]
  growth at 10 µM: 29%
NCI-H23
  growth at 10 µM: 19%
NCI-H322M
  growth at 10 µM: 35%
NCI-H460
  growth at 10 µM: 4%
HCT-15
  growth at 10 µM: 11%
KM12
  growth at 10 µM: 6%
LOX IMVI
  growth at 10 µM: 21%
MDA-MB-435
  growth at 10 µM: -29%
IGROV-1 [5]
  growth at 10 µM: 25%
NCI-H522
  growth at 100 µM: -48%
SF-268
  growth at 100 µM: 1%
U-251
  growth at 100 µM: -4%
IGROV-1 [6]
  growth at 100 µM: 2%
SK-MEL-5 [7]; read-out: GI50
  GI50: 0.0715 µM
SK-MEL-5 [7]; read-out: LC50
  LC50 (concentration killing 50% of cells): 27.7 µM
SK-MEL-5 [7]; read-out: TGI
  TGI: 5.25 µM
SK-MEL-5 [7]; read-out: pGI50 (converted)
  GI50: 0.0708 µM
SK-MEL-5 [7]; read-out: pLC50 (converted)
  LC50 (concentration killing 50% of cells): 27.5 µM
SK-MEL-5 [7]; read-out: pTGI
  TGI: 5.25 µM
IGROV-1 [8]; read-out: GI50
  GI50: 0.346 µM
IGROV-1 [8]; read-out: LC50 (the source's name)
  CC50: > 100 µM
IGROV-1 [8]; read-out: TGI
  TGI: > 100 µM
IGROV-1 [8]; read-out: pGI50 (converted)
  GI50: 0.347 µM
IGROV-1 [8]; read-out: pLC50 (the source's name) (converted)
  CC50: > 100 µM
IGROV-1 [8]; read-out: pTGI
  TGI: > 100 µM
786-0; read-out: GI50
  GI50: 0.174 µM
786-0; read-out: LC50
  LC50: > 100 µM
786-0; read-out: TGI
  TGI: 38.6 µM
786-0; read-out: pGI50 (converted)
  GI50: 0.174 µM
786-0; read-out: pLC50 (converted)
  LC50: > 100 µM
786-0; read-out: pTGI (converted)
  TGI: 38.9 µM
SN12C; read-out: GI50
  GI50: 0.825 µM
SN12C; read-out: LC50
  LC50: > 100 µM
SN12C; read-out: TGI
  TGI: 92.6 µM
SN12C; read-out: pGI50 (converted)
  GI50: 0.832 µM
SN12C; read-out: pLC50 (converted)
  LC50: > 100 µM
SN12C; read-out: pTGI (converted)
  TGI: 93.3 µM

From ChEMBL document CHEMBL4145521, “Regioselective synthesis of 3,4-diaryl-5-unsubstituted isoxazoles, analogues of natural cytostatic combretastatin A4” (Eur J Med Chem, 2018)
